Results as given in paper PMC2728345 (Toxicology and applied pharmacology, 2009).
Positions count from the first letter of the chain named. Entries after “also recorded” stand apart in the source; their conditions may differ.

What was measured:
[1] = target: T1, human PXR (Homo sapiens, UniProt O75469); assay: Activation of human PXR in stable line hPXR-HRE; conditions: 10 µM, 24 h, ratio over DMSO
T1 sequence (O75469 1-434): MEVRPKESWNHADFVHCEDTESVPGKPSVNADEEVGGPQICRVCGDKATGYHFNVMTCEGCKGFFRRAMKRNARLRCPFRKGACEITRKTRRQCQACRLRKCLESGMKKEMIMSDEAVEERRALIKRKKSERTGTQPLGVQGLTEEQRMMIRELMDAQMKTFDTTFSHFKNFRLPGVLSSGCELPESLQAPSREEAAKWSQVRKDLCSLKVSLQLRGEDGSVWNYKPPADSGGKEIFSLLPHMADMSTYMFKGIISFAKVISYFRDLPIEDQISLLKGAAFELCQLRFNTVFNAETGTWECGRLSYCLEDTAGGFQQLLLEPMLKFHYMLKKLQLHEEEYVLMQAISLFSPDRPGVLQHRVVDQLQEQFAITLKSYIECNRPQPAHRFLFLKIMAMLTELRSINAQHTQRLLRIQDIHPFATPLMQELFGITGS

[2] = system: CYP3A4; assay: Metabolism of pyrethroids by recombinant CYP3A4; conditions: Supersomes 5 pmol P450, pyrethroid 50 µM, NRS, 37°C
[3] = for hydrolysis by pooled human liver microsomes (rate group / extent, in words): 50 µg protein, pyrethroid 200 µM mixed with equal volume, Tris-HCl pH 7.4, 37°C
[4] = target: carboxylesterase HCE2 (Homo sapiens, UniProt O00748); assay: Hydrolysis of pyrethroids by recombinant HCE2; type: in vitro ADME; conditions: for preference for hydrolysis by HCE2 over HCE1: recombinant HCE2 vs HCE1 lysates, Tris-HCl pH 7.4
[5] = system: CYP3A4; assay: CYP3A4 expression in human primary hepatocytes; conditions: 10 µM, 24 h; for induction of CYP3A4 mRNA: four donors
[6] = target: T2, rat PXR (Rattus norvegicus, UniProt Q9R1A7); assay: Activation of rat PXR, cotransfection with CYP3A4-DP-Luc in HepG2; conditions: 24 h
T2 sequence (Q9R1A7 1-431): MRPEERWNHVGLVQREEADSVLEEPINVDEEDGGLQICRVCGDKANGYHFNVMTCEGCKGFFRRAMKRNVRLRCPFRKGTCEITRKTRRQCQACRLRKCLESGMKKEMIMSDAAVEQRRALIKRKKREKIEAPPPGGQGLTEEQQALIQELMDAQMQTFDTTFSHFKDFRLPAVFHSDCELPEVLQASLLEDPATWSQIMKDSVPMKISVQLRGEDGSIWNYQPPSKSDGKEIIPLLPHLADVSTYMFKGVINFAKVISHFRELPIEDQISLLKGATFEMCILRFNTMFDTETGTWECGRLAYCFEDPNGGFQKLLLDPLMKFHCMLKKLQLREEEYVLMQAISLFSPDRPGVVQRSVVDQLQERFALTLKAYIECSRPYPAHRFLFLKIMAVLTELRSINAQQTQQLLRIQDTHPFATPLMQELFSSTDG

[7] = system: rats or mice; conditions: in vivo, po; cited from earlier work
[8] = target: T3, carboxylesterase HCE1 (Homo sapiens, UniProt P23141); assay: Hydrolysis of pyrethroids by recombinant HCE1; type: in vitro ADME; conditions: for preference for hydrolysis by HCE1 over HCE2 (words): recombinant HCE1 vs HCE2 lysates, Tris-HCl pH 7.4
T3 sequence (P23141 18-567): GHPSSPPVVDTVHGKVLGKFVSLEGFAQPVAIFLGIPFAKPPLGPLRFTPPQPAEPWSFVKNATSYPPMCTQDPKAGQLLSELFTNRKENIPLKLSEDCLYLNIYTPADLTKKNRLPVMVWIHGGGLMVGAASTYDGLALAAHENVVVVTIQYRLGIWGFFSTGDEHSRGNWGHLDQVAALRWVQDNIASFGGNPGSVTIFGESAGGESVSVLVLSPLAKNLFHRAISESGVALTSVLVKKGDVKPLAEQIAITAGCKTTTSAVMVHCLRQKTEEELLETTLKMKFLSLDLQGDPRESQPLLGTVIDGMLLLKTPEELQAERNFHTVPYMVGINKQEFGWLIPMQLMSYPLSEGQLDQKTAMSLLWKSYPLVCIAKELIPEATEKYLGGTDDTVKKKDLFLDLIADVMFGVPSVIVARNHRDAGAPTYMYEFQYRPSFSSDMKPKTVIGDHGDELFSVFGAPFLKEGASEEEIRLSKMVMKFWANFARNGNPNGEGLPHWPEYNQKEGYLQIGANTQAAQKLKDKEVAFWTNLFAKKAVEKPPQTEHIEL

[9] = type: in vitro ADME, human; conditions: ten individual microsomal samples, 100 µM bioallethrin, 30 min
[10] = target: T1, human PXR; assay: Activation of human PXR in hPXR-HRE cells transfected with HCE1, HCE2 or vector
[11] = target: T4, human PXR variant S208F (Homo sapiens, UniProt O75469, S208F); conditions: HepG2 cotransfection, 10 µM, 24 h; words: compared with wild-type PXR
T4 sequence (O75469 1-434 S208F): T1 sequence (O75469 1-434) with S208F

[12] = system: CYP3A4; assay: CYP3A4 mRNA in cell lines HepG2, Hop92 and LS180; type: cell-based, human; conditions: 24 h
[13] = target: T5, human PXR variant L412I (Homo sapiens, UniProt O75469, L412I); conditions: HepG2 cotransfection, 10 µM, 24 h
T5 sequence (O75469 1-434 L412I): T1 sequence (O75469 1-434) with L412I

Sequence of carboxylesterase HCE2 (O00748 27-559): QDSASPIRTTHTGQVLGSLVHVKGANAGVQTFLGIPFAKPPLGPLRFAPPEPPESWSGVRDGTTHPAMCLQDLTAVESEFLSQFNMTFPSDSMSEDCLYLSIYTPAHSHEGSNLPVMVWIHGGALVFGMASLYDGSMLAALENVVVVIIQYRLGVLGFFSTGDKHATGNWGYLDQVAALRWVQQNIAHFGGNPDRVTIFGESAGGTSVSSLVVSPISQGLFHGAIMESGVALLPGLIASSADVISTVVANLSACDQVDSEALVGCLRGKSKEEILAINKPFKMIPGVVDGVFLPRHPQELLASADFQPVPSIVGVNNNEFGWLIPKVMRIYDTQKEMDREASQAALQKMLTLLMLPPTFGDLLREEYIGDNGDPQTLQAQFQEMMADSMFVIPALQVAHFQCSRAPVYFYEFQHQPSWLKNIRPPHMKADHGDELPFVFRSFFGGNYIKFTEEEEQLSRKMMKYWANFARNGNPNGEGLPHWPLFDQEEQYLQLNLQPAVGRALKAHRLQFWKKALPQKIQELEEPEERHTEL

Row | Structure (SMILES) | activation of human PXR [1] | extent of metabolism by CYP3A4 [2] | hydrolysis by pooled human liver microsomes (rate group / extent, in words) [3] | preference for hydrolysis by HCE2 over HCE1 [4] | induction of CYP3A4 mRNA [5] | activation of rat PXR [6] | preference for hydrolysis by HCE1 over HCE2 (words) [8] | further results
1 | CC(C)[C@@H](Nc1ccc(C(F)(F)F)cc1Cl)C(=O)OC(C#N)c1cccc(Oc2ccccc2)c1 (stereo partly drawn) [tau-Fluvalinate] | 3.5 fold | least extent | low rate | HCE2 preferably hydrolyzed |  |  |  | 
2 | CC1(C)[C@H](C(=O)OCc2cccc(Oc3ccccc3)c2)[C@@H]1C=C(Cl)Cl [Per-2, cis-permethrin] |  |  | low rate |  |  |  |  | hydrolysis by HCE2 relative to HCE1 ([4]; recombinant enzymes): 7 times
3 | Cc1c(COC(=O)[C@@H]2[C@H](/C=C(\Cl)C(F)(F)F)C2(C)C)cccc1-c1ccccc1 (racemic) [Bifenthrin] |  |  |  | HCE2 preferably hydrolyzed | ≥ 2.5 fold | efficaciously activated rat PXR |  | 
4 | CC1(C)[C@H](C=C(Cl)Cl)[C@H]1C(=O)OCc1cccc(Oc2ccccc2)c1 [Per-1, trans-permethrin] |  |  | high rate | comparably hydrolyzed by both enzymes |  |  |  | hydrolysis by HCE2 faster than by HCE1 ([4]; recombinant enzymes): 15%
5 | CC(C)=C[C@@H]1[C@@H](C(=O)OCc2coc(Cc3ccccc3)c2)C1(C)C [Bioresmethrin] | 1.5 fold |  | highest extent |  | relatively weaker inducers; also recorded: least induction |  | hydrolyzed overwhelmingly by HCE1 | LD50 [7]: 1244 mg/kg; hydrolysis by HCE1 relative to esfenvalerate ([8]; recombinant HCE1): 7 times; preference for hydrolysis by HCE1 over HCE2 (words) ([8]; listed as bioresmethrin): HCE1 preferably hydrolyzed
6 | C=CCC1=C(C)C(OC(=O)[C@@H]2[C@@H](C=C(C)C)C2(C)C)CC1=O (stereo partly drawn) [Bioallethrin] | activated PXR with less potency | greatest extent | rapidly hydrolyzed |  | relatively weaker inducers; also recorded: least induction | 2.0 fold | HCE1 preferably hydrolyzed | variation of overall hydrolysis among individual samples [9]: ~ 2 fold; hydrolysis rate relative to bifenthrin ([3]; pooled human liver microsomes): 8 times
7 | CC1(C)C(C=C(Cl)Cl)C1C(=O)OCc1cccc(Oc2ccccc2)c1 (stereo not drawn) [Permethrin] | relatively weak activators of human PXR |  |  | HCE2 preferably hydrolyzed |  | efficaciously activated rat PXR |  | 
8 | CC(C)=CC1C(C(=O)OCN2C(=O)C3=C(CCCC3)C2=O)C1(C)C (stereo not drawn) [Tetramethrin] |  | greatest extent |  | HCE2 preferably hydrolyzed; also recorded: slightly more active than HCE1 | relatively weaker inducers; also recorded: minimal induction; also recorded: least induction; also recorded: weakest CYP3A4 inducer |  |  | CYP3A4 protein (Western blotting) [5]: slight increase; hydrolysis rate relative to tau-fluvalinate ([3]; pooled human liver microsomes): 9 times; lowest concentration causing significant activation of PXR, HCE1 ([10]; HCE1 co-transfected cells, 0.5-10 µM): 5 µM; lowest concentration causing significant activation of PXR, HCE2 ([10]; HCE2-cotransfected cells, 0.5-10 µM): > 10 µM; lowest concentration causing significant activation of PXR, vector ([10]; cells cotransfected by the vector, 0.5-10 µM): 1 µM; effect of carboxylesterase cotransfection on PXR activation ([10]; hPXR-HRE cells transfected with HCE1 or HCE2 vs vector, 10 µM): markedly decreased; decrease in PXR activation, HCE1 versus HCE2 cotransfection ([10]; hPXR-HRE cells, 10 µM): decreased more PXR activation than HCE1
9 | CC(C)[C@H](C(=O)O[C@H](C#N)c1cccc(Oc2ccccc2)c1)c1ccc(Cl)cc1 [Esfenvalerate] |  |  | low rate |  | ≥ 2.5 fold |  | HCE1 preferably hydrolyzed | activation of PXR variant S208F [11]: no differences; concentration dependence of CYP3A4 mRNA induction ([12]; HepG2 cells, 0–10 µM): concentration-dependent manner; lowest concentration with significant induction of CYP3A4 mRNA ([12]; HepG2 cells, 0–10 µM): 0.5 µM; induction of CYP3A4 mRNA in HepG2 ([12]; HepG2 cells, 1 µM): significant induction; induction of CYP3A4 mRNA in Hop92 ([12]; Hop92 cells, 1 µM): significant induction; induction of CYP3A4 mRNA in LS180 ([12]; LS180 cells, 1 µM): significant induction; activation of PXR variant L412I compared with wild-type PXR [13]: less extent than the wild-type PXR; LD50 [7]: 325 mg/kg
